Data from ChEMBL document CHEMBL3526047, “Excretion, metabolism, and pharmacokinetics of 1-(8-(2-chlorophenyl)-9-(4-chlorophenyl)-9H-purin-6-yl)-4-(ethylamino)piperidine-4-carboxamide, a selective cannabinoid receptor antagonist, in healthy male volunteers” (Drug Metab Dispos, 2012).
Blank lines part the entries; values can stand above or below the molecule they belong to.

Columns and labels:
[1] = system: Serum; assay: Drug level in serum of healthy obese adult male human treated with [14C]CP-945,598 at 25 mg, po administered as single dose after 4 hrs by HPLC method; assay type: ADME, organism-based; details: in vivo
[2] = system: Homo sapiens; assay: Tmax in healthy obese adult male human treated with [14C]CP-945,598 at 25 mg, po administered as single dose; assay type: ADME, organism-based; details: in vivo
[3] = system: Serum; assay: Drug level in serum of healthy obese adult male human treated with [14C]CP-945,598 at 25 mg, po administered as single dose after 24 hrs by HPLC method; assay type: ADME, organism-based; details: in vivo
[4] = target: Cytochrome P450 3A4 (Homo sapiens, UniProt P08684); assay: Drug metabolism assessed as human recombinant CYP3A4-mediated metabolite formation after 60 mins by HPLC method; assay type: ADME; details: recombinant enzyme, 1 h
[5] = system: Homo sapiens; assay: Terminal elimination half life in healthy obese adult male human treated with [14C]CP-945,598 at 25 mg, po administered as single dose; assay type: ADME, organism-based; details: in vivo
[6] = system: Homo sapiens; assay: AUC (0 to last) in healthy obese adult male human treated with [14C]CP-945,598 at 25 mg, po administered as single dose; assay type: ADME, organism-based, Plasma; set-up: dose 25 mg, route oral, time 0 - last; details: in vivo
[7] = system: Serum; assay: Total drug level in serum of healthy obese adult male human treated with [14C]CP-945,598 at 25 mg, po administered as single dose after 48 hrs by HPLC method; assay type: ADME, organism-based; details: in vivo
[8] = system: Serum; assay: Drug level in serum of healthy obese adult male human treated with [14C]CP-945,598 at 25 mg, po administered as single dose after 48 hrs by HPLC method; assay type: ADME, organism-based; details: in vivo
[9] = Drug excretion in feces of healthy obese adult male human treated with [14C]CP-945,598 at 25 mg, po administered as single dose after 0 to 384 hrs hrs by HPLC method; assay type: ADME, organism-based; details: in vivo
[10] = system: Homo sapiens; assay: Cmax in healthy obese adult male human treated with [14C]CP-945,598 at 25 mg, po administered as single dose; assay type: ADME, organism-based; set-up: dose 25 mg, route oral; details: in vivo
[11] = Drug excretion in urine of healthy obese adult male human treated with [14C]CP-945,598 at 25 mg, po administered as single dose after 0 to 384 hrs hrs by HPLC method; assay type: ADME, organism-based; details: in vivo
[12] = system: Serum; assay: Drug level in serum of healthy obese adult male human treated with [14C]CP-945,598 at 25 mg, po administered as single dose after 12 hrs by HPLC method; assay type: ADME, organism-based; details: in vivo
[13] = system: Serum; assay: AUC in serum of healthy obese adult male human treated with [14C]CP-945,598 at 25 mg, po administered as single dose after 48 hrs by HPLC method; assay type: ADME, organism-based; set-up: time < 48 hr, dose 25 mg, route oral; details: in vivo
[14] = system: Homo sapiens; assay: Total drug excretion in healthy obese adult male human treated with [14C]CP-945,598 at 25 mg, po administered as single dose after 0 to 384 hrs hrs by HPLC method; assay type: ADME, organism-based; details: in vivo
[15] = system: Homo sapiens; assay: AUC (0 to infinity) in healthy obese adult male human treated with [14C]CP-945,598 at 25 mg, po administered as single dose; assay type: ADME, organism-based, Plasma; set-up: dose 25 mg, time infinity, route oral; details: in vivo
[16] = Cmax in healthy obese adult male human at 25 mg, po administered as single dose; assay type: ADME, organism-based; set-up: dose 25 mg, route oral; details: in vivo
[17] = Terminal elimination half life in healthy obese adult male human at 25 mg, po administered as single dose; assay type: ADME, organism-based; details: in vivo, read-out: beta t1/2 (converted)
[18] = Tmax in healthy obese adult male human at 25 mg, po administered as single dose; assay type: ADME, organism-based; details: in vivo
[19] = Tmax in human; assay type: ADME, organism-based; details: in vivo
[20] = Terminal phase half life in human; assay type: ADME, organism-based; details: in vivo, read-out: beta t1/2 (converted)
[21] = system: Homo sapiens; assay: AUC (0 to last) in healthy obese adult male human at 25 mg, po administered as single dose; assay type: ADME, organism-based, Plasma; set-up: dose 25 mg, time 0 - last, route oral; details: in vivo
[22] = Bioavailability in rat; assay type: ADME, organism-based; details: in vivo
[23] = Bioavailability in dog; assay type: ADME, organism-based, Canis lupus familiaris; details: in vivo
[24] = system: Homo sapiens; assay: AUC (0 to infinity) in healthy obese adult male human at 25 mg, po administered as single dose; assay type: ADME, organism-based, Plasma; set-up: dose 25 mg, route oral, time infinity; details: in vivo

Cytochrome P450 3A4, sequence (P08684 whole entry): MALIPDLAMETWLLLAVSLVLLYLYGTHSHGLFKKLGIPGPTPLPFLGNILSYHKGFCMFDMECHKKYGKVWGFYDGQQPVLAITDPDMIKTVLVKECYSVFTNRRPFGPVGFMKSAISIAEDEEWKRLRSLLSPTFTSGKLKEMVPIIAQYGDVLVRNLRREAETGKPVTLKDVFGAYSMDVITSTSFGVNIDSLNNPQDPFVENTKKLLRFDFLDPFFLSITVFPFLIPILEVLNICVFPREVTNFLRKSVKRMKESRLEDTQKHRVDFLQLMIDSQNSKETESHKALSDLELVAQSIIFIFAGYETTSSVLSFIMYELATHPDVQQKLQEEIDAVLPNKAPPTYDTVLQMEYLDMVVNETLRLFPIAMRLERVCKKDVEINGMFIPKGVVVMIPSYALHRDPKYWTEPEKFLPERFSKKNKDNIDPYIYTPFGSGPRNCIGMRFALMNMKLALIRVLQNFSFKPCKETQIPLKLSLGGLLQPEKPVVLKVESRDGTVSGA

- Drug uptake [1]: 28.4 ngequiv/g
- Tmax [2]: 6.8 h
- Drug uptake [3]: 31.8 ngequiv/g
- Drug metabolism [4]: 48.1%
- beta t1/2 [5]: 139 h
- AUClast [6]: 3730 ng·h/mL
- Drug uptake [7]: 57.3 ngequiv/g
- Drug uptake [8]: 23.1 ngequiv/g
- Drug excretion [9]: 4.5%
- Cmax [10]: 42 ng/mL
- Drug excretion [11]: 2.3%
- Drug uptake [12]: 38.1 ngequiv/g
- AUC [13]: 1401 ngequiv.hr/g
- Drug excretion [14]: 6.8%
- AUC [15]: 3970 ng·h/mL
Compound: NC(=O)C1(N)CCN(c2ncnc3c2nc(-c2ccccc2Cl)n3-c2ccc(Cl)cc2)CC1

- Cmax [16]: 14 ng/mL
- half-life [17]: 159 h
- Tmax [18]: 6 h
- Tmax [19]: 4 h
- half-life [20]: 107 h
- AUClast [21]: 778 ng·h/mL
- bioavailability [22]: 32%
- bioavailability [23]: 32%
- AUC [24]: 864 ng·h/mL
Compound: CCNC1(C(N)=O)CCN(c2ncnc3c2nc(-c2ccccc2Cl)n3-c2ccc(Cl)cc2)CC1.Cl [OTENABANT HYDROCHLORIDE]
